Assay results from patent US10544137B2, “PI3K inhibitor, and pharmaceutically acceptable salt, polycrystalline form, and application thereof” (SHANGHAI HAIYAN PHARMACEUTICAL TECHNOLOGY CO., LTD., priority 2016, dated 2020).
Where two headings read alike, the source gives them in different places.

Experiments:
[1] = Metabolism stability assay in liver microsomes; type: in vitro ADME, mouse; details: liver microsomal metabolism in mice
Protocol: Buffer A: 1 L solution of 100 mM potassium dihydrogen phosphate containing 1 mM EDTA (Sigma, V900157-100G) was prepared. Buffer B: 1 L solution of 100 mM dipotassium hydrogen phosphate containing 1 mM EDTA was prepared. Buffer C: 700 mL of buffer B was taken out and titrated with buffer A to pH 7.4.
2.1 10 μl of 10 mM compound to be tested and 10 μl of 10 mM ketanserin were taken out and 190 μl of pure acetonitrile was added to each of them to prepare 500 μM compound to be tested and ketanserin, respectively.
2.2 20 μl (20 mg/mL) of liver microsomes (XENOTECH, H0610) stock solution was added to 513.4 μl of buffer C on wet ice. 0.75 mg/mL liver microsomal solution was obtained.
2.3 1.5 μl of each of the above-mentioned compound to be tested and ketanserin solution was added to 498.5 μl of liver microsomal solution (0.7 5 mg/mL) respectively on wet ice. 1.5 μM mixed solution of compound to be tested and 1.5 μM mixed solution of ketanserin were obtained. […]
2.10 The sample was diluted with pure water in accordance with the ratio of 1:1 and detected by LC/MS. […]
Wherein, the K value and the proportional factor were calculated by those skilled in the art according to the methods described in the prior art and contained in the instructions of the liver microsome product.

[2] = system: NIH-3T3 cells; experiment: Cytotoxicity in normal cell line NIH-3T3 (MTT assay); type: cell-based
Protocol: The MTT assay procedure and steps were carried out as well known to those skilled in the art, and all the reagents used in the methods were commercially available.
The cells in logarithmic growth phase were digested with 0.25% EDTA trypsin (Gibco, 25200-056) and resuspended in fresh medium. 90 μL of the cell suspension was inoculated into a 96-well cell culture plate (BD Faclon 353072) with a suitable cell density and cultured at 37° C. under 5% CO2. After the cells adhered, 10 μL of the test compound at different concentrations (0.0046-10 μM, 8 concentration points) was added and incubated for another 72 h. 10 μL of MTT (5 mg/mL PBS solution) (Sigma, M5655) was added to react for 4 h. The absorbance at 492 nm was measured by using Thermo Scientific Multiskan MK3 microplate reader and IC50 was calculated using XLFIT 5.0 software (UK IDBS).

[3] = target: T1, PI3K-α (p110α/p85α) (Homo sapiens, UniProt P42336); experiment: Determination of PI3K kinase activity (ADP Transcreener fluorescence polarization), PI3K-α; type: biochemical; details: compared with BKM-120
T1 construct: purchased Invitrogen PV4788
T1 sequence (P42336 whole entry): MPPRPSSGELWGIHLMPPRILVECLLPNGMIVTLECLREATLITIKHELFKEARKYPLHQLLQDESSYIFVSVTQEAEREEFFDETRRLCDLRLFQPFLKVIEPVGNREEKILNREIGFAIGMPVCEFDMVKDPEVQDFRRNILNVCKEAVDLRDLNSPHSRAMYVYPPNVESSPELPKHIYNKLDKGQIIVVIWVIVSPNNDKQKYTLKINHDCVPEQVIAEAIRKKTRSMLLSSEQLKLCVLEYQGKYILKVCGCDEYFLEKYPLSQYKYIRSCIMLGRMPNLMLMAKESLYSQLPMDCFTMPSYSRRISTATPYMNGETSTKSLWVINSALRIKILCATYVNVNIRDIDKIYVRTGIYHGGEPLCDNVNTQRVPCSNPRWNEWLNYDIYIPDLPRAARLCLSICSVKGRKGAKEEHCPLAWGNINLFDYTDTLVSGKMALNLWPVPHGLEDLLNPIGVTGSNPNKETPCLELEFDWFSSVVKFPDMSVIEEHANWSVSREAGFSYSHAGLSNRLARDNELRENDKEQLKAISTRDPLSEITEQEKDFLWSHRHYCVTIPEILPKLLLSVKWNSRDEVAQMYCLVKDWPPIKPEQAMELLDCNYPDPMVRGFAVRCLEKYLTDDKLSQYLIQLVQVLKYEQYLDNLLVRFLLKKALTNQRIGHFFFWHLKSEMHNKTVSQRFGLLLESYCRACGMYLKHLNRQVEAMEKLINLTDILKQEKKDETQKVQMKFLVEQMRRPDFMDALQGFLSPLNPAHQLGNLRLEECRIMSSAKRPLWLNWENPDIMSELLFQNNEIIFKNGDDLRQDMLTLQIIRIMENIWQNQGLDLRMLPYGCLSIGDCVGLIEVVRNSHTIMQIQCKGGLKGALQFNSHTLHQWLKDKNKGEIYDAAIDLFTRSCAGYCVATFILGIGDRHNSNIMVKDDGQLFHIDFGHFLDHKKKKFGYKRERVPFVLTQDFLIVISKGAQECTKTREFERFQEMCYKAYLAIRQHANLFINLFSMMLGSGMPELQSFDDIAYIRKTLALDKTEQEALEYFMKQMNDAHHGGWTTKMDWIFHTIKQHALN
T1 sequence (P27986 whole entry partner): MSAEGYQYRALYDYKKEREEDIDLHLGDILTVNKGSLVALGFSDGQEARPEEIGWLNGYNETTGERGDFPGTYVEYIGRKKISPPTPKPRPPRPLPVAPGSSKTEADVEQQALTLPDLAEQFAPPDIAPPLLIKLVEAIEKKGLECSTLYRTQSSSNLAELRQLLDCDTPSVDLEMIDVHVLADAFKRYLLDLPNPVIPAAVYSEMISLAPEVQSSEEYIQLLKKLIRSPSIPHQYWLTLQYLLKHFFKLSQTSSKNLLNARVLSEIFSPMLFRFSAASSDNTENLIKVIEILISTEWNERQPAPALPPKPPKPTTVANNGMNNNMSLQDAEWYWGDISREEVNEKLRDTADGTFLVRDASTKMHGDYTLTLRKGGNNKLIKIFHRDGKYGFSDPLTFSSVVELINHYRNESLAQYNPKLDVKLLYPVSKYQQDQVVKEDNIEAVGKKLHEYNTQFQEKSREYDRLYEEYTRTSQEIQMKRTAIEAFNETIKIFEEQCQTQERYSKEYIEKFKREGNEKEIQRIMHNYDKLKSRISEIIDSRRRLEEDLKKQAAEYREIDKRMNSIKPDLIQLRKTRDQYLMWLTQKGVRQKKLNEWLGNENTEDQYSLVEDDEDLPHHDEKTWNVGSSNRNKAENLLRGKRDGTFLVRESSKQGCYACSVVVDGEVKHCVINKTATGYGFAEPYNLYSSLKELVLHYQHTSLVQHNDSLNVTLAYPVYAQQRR
Protocol: The inhibition of PI3K kinase activity by the compound to be tested was determined by the following method. The working concentration of each component in the 25 μL enzyme reaction system was: p110α/p85α 3 ng (or p110β/p85α 60 ng, or p110δ/p85α 90 ng, or p110γ 100 ng), ATP 10 μM, PIP2: PS (Invitrogen PV5100) 30 μM and the DMSO concentration was 2% after addition of the compound to be tested.
The compound to be tested was gradiently diluted 3 times (0.00046-1 μM, 8 concentration points) with 10% DMSO. 5 μL of the compound to be tested was added to each well of a 96-well plate (Greiner 675076) in duplicate. […] 10 μL of ATP/PIP2: PS and 10 μL of the PI3K enzyme working solution were added to each well in a 96-well plate. The plate was shaken and mixed uniformly, and then incubated at 25° C. for 1 hour. […] After completion of the enzyme reaction, 25 μL of ADP assay solution (1% 100×ADP tracer, 0.79% ADP antibody and 10% 10× reaction stop solution) was added and incubated at 25° C. for 1 hour. Fluorescence polarization value [mP] of each well was measured with a Perkin Elmer Victor X5 Fluorescent Microplate. The ADP concentration [ADP] was calculated from the ADP/ATP standard curve and the IC50 values were calculated using the XLFit software.

[4] = Solubility experiment in 0.1M HCl, buffers and water; type: physicochemical; details: ambient temperature; for solubility at 30 min: thermodynamic from solid
Protocol: The solubilities of the following four kinds of salt and free base sample in 0.1M HCl, pH 4.5 buffer, pH 6.8 buffer, and water were tested at ambient temperature. In the test, the calibration curves of free base and four kinds of salt were plotted. 3 mg of solid samples of free base and four kinds of salt were weighed, respectively, and then 1 ml of the solvent was added, centrifuged after 30 min ultrasound. The supernatant was taken, and injected through the membrane, and the solubility was tested.

Clearance [1]: 108.9 mL/min/kg
increase of inhibitory activity against PI3K-α kinase versus BKM-120 [3]: about 10 times
Solubility (mg/mL) 0.1M HCl ([4]; 0.1M HCl, listed as Free base): >2.973 mg/mL
solubility at 30 min ([4]; pH 4.5 buffer, pH 4.5, aqueous buffer, pH 4.5 buffer, read-out: Solubility (mg/mL) pH 4.5): 0.025 mg/mL
solubility at 30 min ([4]; pH 6.8 buffer, pH 6.8, aqueous buffer, pH 6.8 buffer, read-out: Solubility (mg/mL) pH 6.8): 0.015 mg/mL
Solubility (mg/mL) H2O ([4]; water, listed as Free base): 0.016 mg/mL
Compound: CS(=O)(=O)C1(c2cc(-c3cnc(N)cc3Cl)nc(N3CCOCC3)n2)CC1 [Compound of formula X, 4-chloro-5-(6-(1-(methylsulfonyl)cyclopropyl)-2-morpholinopyrimidin-4-yl)pyridin-2-amine]
cytotoxicity in normal cell lines [2]: relatively low cytotoxicity
